Experimental data published in patent US12102089B2, “Method for inactivating mold spores” (DSM IP ASSETS B.V., priority 2017, dated 2024).

Test: LC-MS/MS analysis of natamycin and mycosamine in heated ice tea sample
Type: physicochemical
Settings: 10 ppm natamycin at t=0, heated at 70° C.
Description: For the analysis of mycosamine at low concentrations (ppb level) a sample preparation is used with a cation exchange SPE material to isolate mycosamine from the sample matrix and/or remove possible interfering impurities therefrom. The analysis was performed on LC-MS/MS on a ZIC-HILIC column. For the identification and (semi) quantification a reference of mycosamine was prepared. The concentration of mycosamine in this reference was determined with ^1H-NMR.

mycosamine found in sample (Example 1 ice tea sample (pH 3.15)): 2 mg/L | mycosamine found in sample (Example 2 ice tea sample): 2 mg/L | mycosamine found in sample (Example 3 ice tea sample): 2 mg/L
SMILES: C[C@@H](O)[C@@H](O)[C@H](N)[C@H](O)C=O [mycosamine]
